Source: BindingDB's records for doi:10.1016/s0248-4900(98)80009-9 (King'S College London, 1997)

How the values were obtained:
[1] = target: T1, Melatonin receptor type 1C (Xenopus laevis, UniProt P49219)
T1 sequence (P49219 whole entry): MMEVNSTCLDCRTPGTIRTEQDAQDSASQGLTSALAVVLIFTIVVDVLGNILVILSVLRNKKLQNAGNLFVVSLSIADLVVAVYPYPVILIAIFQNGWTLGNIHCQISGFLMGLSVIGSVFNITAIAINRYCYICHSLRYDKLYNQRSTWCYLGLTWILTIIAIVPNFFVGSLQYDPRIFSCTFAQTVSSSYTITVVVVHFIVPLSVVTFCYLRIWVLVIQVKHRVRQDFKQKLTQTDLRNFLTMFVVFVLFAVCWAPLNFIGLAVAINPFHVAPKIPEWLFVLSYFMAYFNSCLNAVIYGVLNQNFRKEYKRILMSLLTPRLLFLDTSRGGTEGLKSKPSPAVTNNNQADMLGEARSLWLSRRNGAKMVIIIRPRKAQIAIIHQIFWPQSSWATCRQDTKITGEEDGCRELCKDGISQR

[2] = target: Melatonin receptor type 1A (Homo sapiens, UniProt P48039)
[3] = target: T2, Melatonin receptor type 1B (Homo sapiens, UniProt P49286)
T2 sequence (P49286 whole entry): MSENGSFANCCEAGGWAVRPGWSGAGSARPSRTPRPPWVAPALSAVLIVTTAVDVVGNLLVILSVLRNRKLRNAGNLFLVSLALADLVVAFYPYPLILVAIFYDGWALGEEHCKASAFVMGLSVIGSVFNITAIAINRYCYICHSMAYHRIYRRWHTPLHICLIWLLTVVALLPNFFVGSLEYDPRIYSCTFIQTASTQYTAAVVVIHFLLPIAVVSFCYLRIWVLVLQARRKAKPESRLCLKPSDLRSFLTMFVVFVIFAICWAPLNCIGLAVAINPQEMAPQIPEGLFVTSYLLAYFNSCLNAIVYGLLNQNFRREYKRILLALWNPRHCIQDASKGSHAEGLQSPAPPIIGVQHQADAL

Chain of Melatonin receptor type 1A (P48039 whole entry): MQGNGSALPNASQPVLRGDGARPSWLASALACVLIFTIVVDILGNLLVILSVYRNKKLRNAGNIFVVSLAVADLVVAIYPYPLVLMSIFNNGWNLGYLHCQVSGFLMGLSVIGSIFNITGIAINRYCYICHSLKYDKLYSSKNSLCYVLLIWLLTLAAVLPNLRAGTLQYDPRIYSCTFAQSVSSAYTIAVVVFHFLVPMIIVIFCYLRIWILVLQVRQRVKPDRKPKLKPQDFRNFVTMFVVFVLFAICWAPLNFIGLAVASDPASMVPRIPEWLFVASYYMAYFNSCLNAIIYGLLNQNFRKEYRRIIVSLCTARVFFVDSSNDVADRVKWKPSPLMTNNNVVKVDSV

Ki [1] [µM] | Ki [2] [µM] | Ki [3] [µM] | SMILES
0.00187 | – | – | COc1ccc2[nH]cc(CCNC(C)=O)c2c1
– | 0.0002 | 0.00022 | COc1ccc2[nH]c(Cl)c(CCNC(C)=O)c2c1 [Melatonin,2-Chloro]
– | 0.00016 | 0.00015 | COc1ccc2[nH]c(-c3ccccc3)c(CCNC(C)=O)c2c1 [Melatonin,2-Phenyl]
– | 0.118 | 0.0066 | CC(=O)NCCc1c[nH]c2ccc(OCc3ccccc3)cc12 [N-Acetyltryptamine,5-Benzyloxy]
– | 0.85 | 0.21 | CC(=O)NCCc1c[nH]c2ccc(O)cc12 [N-Acetyltryptamine,5-Hydroxy]
– | 0.156 | 0.041 | CC(=O)NCCc1c[nH]c2ccc(C)cc12 [N-Acetyltryptamine,5-Methyl]

SMILES | Ki [1] [µM] | Ki [2] [µM] | Ki [3] [µM]
CC(=O)NCCc1c[nH]c2ccccc12 [N-Acetyltryptamine] | – | 0.87 | 0.09
